The nature of the data set: Dissolution testing of acetaminophen particles (USP XXIII, Apparatus 2, paddle). Format: physicochemical. To be noted: 900 ml water, 37° C., USP Apparatus 2, paddle 50 rpm, amount equivalent to 500 mg acetaminophen, n = 6. The procedure:
Dissolution testing of the acetaminophen particles was carried out using USP XXIII “Acetaminophen capsules” and “Dissolution '711”, which are incorporated herein by reference. The method was adapted to use a relevant quantity of powder, i.e. an amount equivalent to 500 mg of acetaminophen in the dissolution bowl. This quantity represents a standard amount of […] in marketed U.S.A. over-the-counter (OTC) products. The operating conditions included 900 ml of water at 37° C. in a USP Apparatus 2 with paddle speed set at 50 rpm. FIG. 1 presents the dissolution-curves of acetaminophen and 4.6% lipid-based coated acetaminophen, i.e. 4.6% coating and 95.4% acetaminophen.

As for `CC(=O)Nc1ccc(O)cc1` [100% Acetaminophen, Acetaminophen], the Dissolution % was determined as 66.3% (5 min); 90.8% (10 min); 95.7% (15 min); 97.1% (20 min); 97.5% (30 min); 97.7% (45 min). For the same compound, for the setting “60 min”, the Dissolution % amounted to 97.7%.

Values taken from patent publication US20030215498A1, “Rapidly disintegrating comressed tablets comprising biologically active compounds” (priority 2002, published 2003).
